Test results as given in patent publication US11092610B2, “Biomarker SBP1 for early diagnosis of kidney diseases, and use thereof” (CELLGENTEK CO., LTD., priority 2016, dated 2021).

Columns and labels:
[1] = system: rat; assay: Hepatotoxicity model (carbon tetrachloride), liver findings and urinary SBP1; assay type: in vivo
Procedure: (§1) The extracted proteins were dissolved, and transferred to a nitrocellulose membrane. Here, methanol was added to a transfer buffer, and the reaction was performed at 80 V for 1 hour. After the proteins were transferred, the membrane was stained with Ponceau S (within 10 seconds to 1 minute, slightly stained to see a band), and sufficiently washed with DW or PBS for blocking. Here, a blocking buffer was used by dissolving 3 to 5% bovine serum albumin (BSA) in a solution in which TWEEN™ 20 was contained in Tris-buffered saline (TBS). A primary antibody was reacted at 4° C. overnight, rinsed with a wash buffer (surfactant-containing TBS or PBS) to remove unbinding primary antibodies, and then secondary antibodies were reacted. After the secondary antibodies were reacted, unbinding secondary antibodies were rinsed with a washing buffer, and a band was identified using luminol.
To confirm whether urinary SBP1 is released in a hepatotoxicity model, a hepatotoxic material such as carbon tetrachloride (CCl4) was administered to a rat to induce hepatotoxicity, and then SBP1 level in urine was measured.

[2] = system: SD rats; assay: Drug (cisplatin)-induced renal failure animal model; assay type: in vivo, rat; conditions: 10 mg/kg I.P.
Procedure: On Day 1, Day 3 and Day 5 after the injection, protein contents in urine obtained for 24 hours were measured in rats of the cisplatin-administered experimental group and the untreated control.
as §1
A supernatant was obtained by centrifuging each urine sample at 3000 g for 15 minutes, and stored in a freezer at −80° C. Following the urine collection, experimental animals were anesthetized with carbon dioxide to collect blood from the abdominal aorta, and after natural death due to bleeding, the kidneys and liver were extracted. A supernatant was obtained by centrifuging each blood sample at 1500 g for 15 minutes, and stored in a freezer at −80° C. The obtained urine and blood samples were subjected to detection of conventional markers using a test kit corresponding to each parameter.

[3] = system: Sprague-Dawley rat; assay: Diabetic animal model induced by STZ administration (blood glucose, urine and renal failure markers); assay type: in vivo
Procedure: To verify a diabetic animal model induced by STZ administration according to Example 1-1 of the present invention, an experiment was carried out by designing the experimental model as described in FIG. 1A.
However, in an experimental group in which diabetic animals are treated with an antidiabetic drug, it was confirmed that a blood glucose level was decreased gradually on Day 7, Day 14 and Day 21, and decreased to almost the normal level on the last day, Day 28.
Then, it was confirmed whether renal failure occurs in a diabetic animal model induced by STZ administration. […] It can be seen that, in the anti-diabetic drug-administered group, the BUN and creatinine levels are decreased to a normal range.

[4] = after administration of hepatotoxic material
[5] = one day after administration, then decreased
[6] = STZ 50 mg/kg single dose I.P., rat

Which results are given for `ClC(Cl)(Cl)Cl` [carbon tetrachloride]?
BUN [1, 4]: no changes; SBP1 in urine (western blotting) [1, 4]: not detected; creatinine [1, 4]: no changes; ALT level compared with the control [1, 5]: increased; AST level compared with the control [1, 5]: increased; hepatotoxicity, liver histopathology (H&E staining) ([1]; rat liver, from one day after administration): severe liver failure was observed

How did the “BUN compared with the control” value ([2]; Day 1) turn out when `N.N.[Cl][Pt][Cl]` [cisplatin] was run?
Its value is “no significant differences”.

And the “kidney tissue damage (histology)” value ([2]; Day 1)?
Its value is “mildly damaged”.

And the “serum creatinine compared with the control” value ([2]; Day 1)?
Its value is “no significant differences”.

What about the “urinary SBP1 level (western blotting)” value ([2]; Day 1) of the same compound?
Its value is “increased”.

And the “BUN compared with the control” value ([2]; Day 3)?
The value was “significantly increased”.

And the “serum creatinine compared with the control” value ([2]; Day 3)?
Its value is “significantly increased”.

What about the “urinary SBP1 level compared with the control” value ([2]; Day 3) of the same compound?
Its value is “highly increased”.

And the “BUN, increase compared with the control” value ([2]; Day 5)?
Its value is 3 to 5 fold.

What about the “kidney tissue damage (histology)” value ([2]; Day 5) of the same compound?
The value was “most tubules were severely damaged”.

What about the “serum creatinine, increase compared with the control” value ([2]; Day 5) of the same compound?
The value was 3 to 5 fold.

What about the “urinary SBP1 level (western blotting)” value ([2]; Day 5) of the same compound?
Its value is “detected at a very high level”.

With `CN(N=O)C(=O)N[C@@H](C=O)[C@@H](O)[C@H](O)[C@H](O)CO` [STZ, streptozocin] as the compound, how does the blood glucose level [3, 6] read?
Its blood glucose level is ≥ 600 mg/dL.

And the “blood glucose level, increase compared to the control” value [3, 6]?
Its value is ≥ 6 fold.

What about the “BUN, increase compared to the control” value ([3]; STZ-administered group, rat) of the same compound?
The value was ≥ 2 fold.

What about the “creatinine, increase compared to the control” value ([3]; STZ-administered group, rat) of the same compound?
Its value is ≥ 2 fold.

What about the “microalbumin in urine, increase compared to the control” value ([3]; STZ-administered group, rat) of the same compound?
The value was ≥ 10 fold.

What about the “urine volume, increase compared to the control” value ([3]; diabetic animal induced by STZ administration) of the same compound?
Its value is ≥ 3 fold.
